Assay results as given in patent US6551812B1, “Compositions and methods relating to the peroxisomal proliferator activated receptor-α mediated pathway” (CuraGen Corporation, priority 1998, dated 2003).
Where two headings read alike, the source gives them in different places.

Tests used:
CYP2B1 [1] = conditions: rat hepatocytes; cited from earlier work
CYP2B1 [2] = conditions: in vivo mouse model; cited from earlier work
acetyl CoA carboxylase = conditions: co-incubation of hepatocytes with ligand; cited from earlier work
GSTa isoform = conditions: rat livers, precancerous change; cited from earlier work
Histidine decarboxylase = conditions: rat stomach; cited from earlier work
[3] = tested on: genes responsive to PPARαL treatment in rat liver; test: GENECALLING differential gene expression analysis of liver from rats treated with PPARα ligand GW9578 vs vehicle control; type: in vivo
Protocol: The present invention is based in part on the discovery of changes in expression patterns of multiple nucleic acid sequences, including sequences encoding known genes as well as heretofore undescribed nucleic acid sequences, in rodent liver cells following exposure to a ligand for a PPARα. The differences in gene expression were identified following administration of 1.5 mg/kg/day of a PPARα-specific ligand named GW9578. This compound is described in Brown et al., J. Med. Chem.42:3785-8, 1999, whose contents are incorporated herein in their entirety.
GW9578 was administered to male 10-14 week old Sprague Dawley rats in b.i.d. dosing for 3 days. The animals were sacrificed 24 hours following the last dose, and liver tissue was analysis using the GENECALLING® sequence identification methods described U.S. Pat. No. 5,871,697. The contents of this application are incorporated herein by reference in their entirety.
The GENECALLING® sequence identification method is performed by digesting a cDNA with a pair of restriction endonucleases. The digested fragments are differentially tagged at both the 3- and 5′-termini, and amplified via polymerase chain reaction (PCR) with a fluorescent label that is detected upon subsequent electrophoresis. In the studies with PPARα ligand GW9578, a total of 48 different reactions were performed, each with a unique pair of restriction enzymes. […] This number represents a non-redundant coverage of approximately 85% of the total number of hepatic genes.
The hepatic response to treatment with the PPARαL compound was determined by comparing in triplicate the relative abundance of each of the 8973 gene fragments in the PPARαL-treated vs. the PPARα-untreated rodents. Comparison was performed using commercially available GENESCAPE® expression analysis software. PPARαL administration detectably altered the expression of 218 of the 8973 (2.4%) hepatic genes fragments by greater than 1.5-fold. […] Novel genes, corresponding to fragments with no match within the database, were subsequently isolated and sequenced (FIG. 4). […] There was an excellent correlation between the expression analysis results derived by the GENECALLING® sequence identification methods in comparison with those results previously obtained by the use of reverse transcriptase-based PCR (“RT-PCR”) (See FIG. 3).
Harlan Sprague Dawley rats 10-14 weeks old were treated with oral tablet doses of: (i) PPARαL in an n-methylglucamine carrier twice daily (b.i.d) for a total of 3 days (3 rats total) or (ii) PPARαL in an n-methylglucamine carrier twice daily (b.i.d.) for a total of 3 days (3 rats total) or (iii) the n-methylglucamine carrier alone twice daily (b.i.d.) for a total of 3 days (3 rats total). On the fourth day, approximately 12 hours following the last dose of drug the animals were sacrificed. Liver and adipose tissue were harvested from all animals and snap frozen in liquid nitrogen.
Total cellular RNA was isolated with Trizol (GIBCO-BRL; Baltimore Md.) using a one-tenth volume of bromochloropropane (Molecular Research Corp.; Cincinnati, Ohio) to facilitate phase separation. Contaminating DNA was removed by treatment with DNase I (Promega Biotech; Milwaukee, Wis.) in the presence of 0.01 M DTT (GIBCO-BRL; Baltimore, Md.) and 1 Unit/1 RNAsin (Promega Biotech; Milwaukee, Wis.). Following phenol/chloroform extraction, RNA quality was evaluated by spectrophotometry and formaldehyde agarose gel electrophoresis, and RNA yield was estimated by fluorometry with OliGreen® (Molecular Probes; Eugene, Oreg.). Poly(A)^+ RNA was prepared from […] of total RNA by use of oligo(dT) paramagnetic beads (PerSeptive Biosynthesis; Boston, Mass.), and quantitated with fluorometry.
First strand cDNA was prepared from […] of poly(A)^+ RNA with 200 pmoles oligo(dT)25V (where V=A, C or G) (PerSeptive Biosynthesis; Boston, Mass.) using 40 Units of SuperScript II reverse transcriptase (GIBCO-BRL; Baltimore, Md.). […]

[4] = rat liver, 1.5 mg/kg/day b.i.d. 3 days, vs vehicle control
[5] = rat liver, treatment with PPARαL
[6] = rat liver, upon treatment with PPARα ligand

SMILES: CC(C)(Oc1ccc(Cl)cc1)C(=O)O [clofibric acid]
- gene encoding CYP2B1, expression (CYP2B1 [1]): upregulated

SMILES: CCOC(=O)C(C)(C)Oc1ccc(Cl)cc1 [clofibrate]
- gene encoding CYP2B1, expression (CYP2B1 [2]): not been observed to change

SMILES: CC(C)(Oc1ccc(C2CCCc3ccccc32)cc1)C(=O)O (stereo not shown) [nafenopin]
- acetyl CoA carboxylase activity (acetyl CoA carboxylase): reduced
- GSTa isoform level (GSTa isoform): decrease

SMILES: CC(C)(Oc1ccc(C2CC2(Cl)Cl)cc1)C(=O)O (stereo not shown) [ciprofibrate]
- histidine decarboxylase expression (Histidine decarboxylase): upregulated

SMILES: CCCCCCCN(CCc1ccc(SC(C)(C)C(=O)O)cc1)C(=O)Nc1ccc(F)cc1F [GW9578]
- number of the 8973 hepatic gene fragments whose expression was altered by greater than 1.5-fold ([3]; 1.5 mg/kg/day, b.i.d. for 3 days, male Sprague Dawley rats, liver, treated vs untreated, triplicate): 218
- D-aminolevulinate synthetase up-regulation [3, 4]: 4 fold
- acetoacetyl-CoA thiolase upregulation [3, 4]: 100 fold
- acetyl-CoA-decarboxylase modulation [3, 4]: +2 fold
- apolipoprotein A-I modulation [3, 4]: −2 fold
- carnitine octanoyl transferase upregulation [3, 4]: 4 fold
- catalase upregulation [3, 4]: 12 fold
- down-regulation of metallothionein 1 [3, 4]: 100 fold
- epoxide hydrolase upregulation [3, 4]: 10 fold
- novel isoform of acyl-CoA oxidase upregulation [3, 4]: 10 fold
- porphobilinogen deaminase up-regulation [3, 4]: 60 fold
- reduction in steroid 3-α-dehydrogenase transcript levels [3, 4]: 60 fold
- steroid 3-delta-dehydrogenase modulation [3, 4]: off
- very long chain acyl CoA synthetase upregulation [3, 4]: 4 fold
- novel gene similar in sequence to mouse carnitine acetyltransferase, expression ([3]; rat liver, following PPARα ligand treatment): moderately upregulated
- histidine decarboxylase gene upregulation ([3]; rat liver, following exposure to PPARα ligand): six
- 17-α-hydroxysteroid dehydrogenase IV transcription [3, 5]: up-regulated
- genes encoding the other steroid catabolism enzymes (steroid-3-α-dehydrogenase, hydroxysteroid sulfotransferase, CYP p450 M1, SMP-2, UDP-glucosuronyl transferase 21) [3, 5]: downregulated
- acetyl-CoA carboxylase expression [3, 6]: upregulation
- decrease in expression of the gene for glutathione S transferase Ya subunit [3, 6]: three
- differential regulation of ATP citrate lyase and fatty acid synthase [3, 6]: not detected
- malic enzyme expression [3, 6]: upregulation
- stearyl-CoA desaturase expression [3, 6]: upregulation
